Experimental data from patent publication EP0791056B1, “LIPID-CLEAVAGE ENZYME COMPLEX” (priority 1994, dated 1996).
Where “and” joins values, the source holds several entries; their conditions need not be identical. Equal values may be shown once. Read-outs that look alike come from different tables or passages of the source.

Legend:
LCE [1] = assay: Substrate cleavage by LCE; format: biochemical; details: cleavage to drug monophosphate and DMDOP
Description: Das Enzym wird vorzugsweise aus humanen peripheren Blutleukozyten, die zuvor durch PHA oder andere Stimulantien (z.B. Cytokine, etc.) aktiviert wurden, oder aus murinen Nierenzellen isoliert. Aus vorläufigen Untersuchungen ergibt sich ein Molekulargewicht von etwa 120.000 - 160.000, bestimmt nach der SDS-PAGE-Methode. Zellen, die dieses Enzym enthalten, können auf einfache Weise dadurch identifiziert werden, indem sie unter geeigneten Testbedingungen mit einer Lösung von AZT-DMDOPE oder FLT-DMDOPE versetzt werden und die Spaltprodukte AZT-monophosphat bzw. FLT-monophosphat oder DMDOP nachgewiesen werden, beispielsweise durch dünnschichtchromatographische Methoden oder im Fall von radioaktiv markierten Proben durch szintillatographische Verfahren (siehe Beispiele 4 - 7). Im Gegensatz zu den biochemisch verwandten Phospholipasen C oder -D wird das LCE nicht durch bekannte Inhibitoren von Phospholipase C oder -D gehemmt oder durch Aktivatoren von Phospholipase C oder -D aktiviert. Im Gegensatz zu Phospholipase C wird das Enzym durch die Substanz D 609 (Tricyclodecan-9-yl-xanthogenat; C11H15OS2 K) aktiviert, während D 609 Phospholipase C inhibiert.

LCE [2] = assay: Influence of enzyme inhibitors or activators on LCE activity, kidney membrane fraction; format: biochemical, Balb/c
Description: Das Pipettierschema ist in der folgenden Tabelle angegeben. Tabelle
Zur Untersuchung der enzymatischen Spaltung in Abhängigkeit von der Substratkonzentration wurde eine Substratstammlösung von 0.98 nmol [^14C]-AZT-DMDOPE und 0.7 nmol AZT-DMDOPE/80 µl Aqua bidest. im LCE-Assay angesetzt. Die verschiedenen Substratkonzentrationen im LCE-Assay wurden durch kontinuierliche Verdopplung bzw. Halbierung des Volumens an Substratlösung eingestellt. Die Ansätze wurden in Glasröhrchen (5 ml) vorgelegt und durch Zugabe der Substratlösung gestartet. Die Inkubation wurde bei 37 °C im Wasserbad unter leichtem Schütteln durchgeführt.
Die Reaktionsansätze des LCE-Assays wurden nach entsprechender Inkubationszeit dem Wasserbad entnommen, und die Reaktion durch Zugabe von 750 µl 2-Propanol gestoppt. Nach gründlicher Durchmischung wurden die Ansätze anschließend mit 700 µl auf Raumtemperatur erwärmtem n-Heptan versetzt. Die Ansätze wurden erneut für 30 sec gut gemischt und zur Beschleunigung der Phasentrennung in der Minifuge T bei 3200 rpm für 15 min bei Raumtemperatur zentrifugiert. Anschließend wurden 500 µl der oberen Phase (n-Heptan) entnommen und in neue Glasröhrchen (5 ml) mit 10 mg Kieselgel 60 H und 200 µl n-Heptan überführt. Die Ansätze wurden für 30 sec gut durchmischt und zur Sedimentation des Kieselgels für 10 min unter oben genannten Bedingungen zentrifugiert. Vom Überstand wurden anschließend 500 µl entnommen und mit 3 ml Szintillationsflüssigkeit versetzt. Die Messung der Radioaktivität erfolgte für 4 min im Flüssigkeits-Szintillations-Analysator. Zur Bestimmung des Absolutwertes an Radioaktivität wurden 200 µl der Substratlösung mit 3 ml Szintillationsflüssigkeit versetzt und unter gleichen Bedingungen im Flüssigkeits-Szintillations-Analysator gemessen.

LCE [3] = assay: LCE assay: dependence of AZT-DMDOPE cleavage on EGTA and divalent metal cations; format: biochemical, human; details: for DMDOP / Spezifische Aktivität / Inhibition: Effektor 2 mM, 2 h 37 °C, n = 3; for DMDOP / Spezifische Aktivität: Membranfraktionen stimulierter humaner PBL 0.068 mg/Ansatz; for Inhibition: relative to EGTA, Membranfraktionen stimulierter humaner PBL; for Inhibierung der LCE-Aktivität (in words): divalent metal cations, 2 mM in Example 9
Description: Die Abhängigkeit der enzymatischen Spaitung von AZT-DMDOPE durch das LCE von zweiwertigen Metallkationen wurde mit Membranfraktionen stimulierter humaner PBL als Enzymquelle untersucht.
Die zweiwertigen Metallkationen wurden in einer Konzentration von 2 mM im LCE-Assay eingesetzt. Die Proteinkonzentration wurde mit 0.068 mg/Ansatz festgelegt.
Parallel wurde ein Ansatz mit EGTA mitgeführt. EGTA ist ein spezifischer Komplexbildner für Ca^2+ das essentiell für die Aktivität der Phospholipase C ist. Nach einer Inkubationszeit von 2 h bei 37 °C wurde der Umsatz der Muttersubstanz gemessen und die spezifische Aktivität des LCE bestimmt (folgende Tabelle).

[4] = LCE Membranfraktion Niere (Balb/c)

| Molecule | Einfluß auf LCE-Aktivität (LCE [2]; [4]) | Spezifische Aktivität (LCE [3]) [pmol/mg/min] | Inhibition (LCE [3]) | other results |
| --- | --- | --- | --- | --- |
| CCCCCCCCCCCCSCC(COP(=O)(O)OC[C@H]1O[C@@H](n2cc(F)c(=O)[nH]c2=O)[C@H](O)[C@@H]1O)OCCCCCCCCCC (some centres unmarked) [5-FU-DMDOPE, (5-Fluoruridin)-5'-phosphorsäure-(3-dodecylmercapto-2-decyloxy)-propylester] | – | – | – | Spaltung durch LCE (LCE [1]): gespalten |
| O=[N+]([O-])c1cccc2cn[nH]c12 [7-Nitroindazol] | keine | – | – | – |
| CC(=O)Oc1ccccc1C(=O)O [Acetylsalicylsäur e] | keine | – | – | – |
| O=C(O)CN(CCOCCOCCN(CC(=O)O)CC(=O)O)CC(=O)O [EGTA] | – | 10.41 ± 1.37 | ≡ 0% | DMDOP (LCE [3]): 84.96 ± 11.18 pmol |
| CCCCCCCCCCCCSCC(COP(=O)(O)OC[C@H]1O[C@@H](n2cc(C)c(=O)[nH]c2=O)C[C@@H]1F)OCCCCCCCCCC (some centres unmarked) [FLT-DMDOPE, (3'-Desoxy-3'-fluorthymidin)-5'-phosphorsäure-(3-dodecylmercapto-2-decyloxy)-propylester] | – | – | – | Spaltung durch LCE (LCE [1]): gespalten |
| Nc1nc2c(ncn2C2OC(COP(=O)(O)OP(O)(=S)OP(=O)(O)O)C(O)C2O)c(=O)[nH]1 (stereo not drawn) [GTP-β-S] | keine | – | – | – |
| [Cl][Mn][Cl] [MnCl2] | – | 0.58 ± 0.08 | 94% | DMDOP (LCE [3]): 4.75 ± 0.63 pmol; Inhibierung der LCE-Aktivität (in words) (LCE [3]): totalen Hemmung; Inhibierung der LCE-Aktivität (in words) (LCE [3]; listed as Mn^2+): Inhibierung |
| O=C(NCCCCCCNC(=O)ON=C1CCCCC1)ON=C1CCCCC1 [RHC-80267] | keine | – | – | – |
| Nc1ncnc2c1ncn2C1CCCO1 (centres unmarked) [SQ 22536] | keine | – | – | – |
| COC[C@H]1OC(=O)c2coc3c2[C@@]1(C)C1=C(C3=O)[C@@H]2CCC(=O)[C@@]2(C)C[C@H]1OC(C)=O [Wortmannin] | – | – | – | Einfluß auf LCE-Aktivität (LCE [2]): keine |
| CaCl2 | – | 6.19 ± 0.26 | 41.0 ± 0.25% and 41.0 ± 2.5% | DMDOP (LCE [3]): 50.50 ± 2.13 pmol; Inhibierung der LCE-Aktivität (in words) (LCE [3]): Inhibierung |
| MgCl2 | – | 10.34 ± 2.08 | 0% | DMDOP (LCE [3]): 84.36 ± 17.02 pmol; Inhibierung der LCE-Aktivität (in words) (LCE [3]): keine Inhibierung |
| Neomycin | keine | – | – | – |
| ZnCl2 | – | 0 | 100.0% | Inhibierung der LCE-Aktivität (in words) (LCE [3]): totalen Hemmung; Inhibierung der LCE-Aktivität (in words) (LCE [3]; listed as Zn^2+): Inhibierung |
